What was measured:
Assay in all cases: relative viability (nuclei count vs DMSO), 5 days (fraction); higher = more cells survive
Seliciclib = compound: CC[C@H](CO)Nc1nc(NCc2ccccc2)c2ncn(C(C)C)c2n1 [Seliciclib]
In short: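 Viability was read as treated-well nuclei divided by vehicle-well nuclei, using the median across plates. Lung cancer cell lines in 1536-well plates were kept overnight at 37 °C, pinned with five √10-spaced library-drug doses, and after 5 days were Hoechst-stained, imaged at 4× and counted in MetaXpress. Plates passed only with control CV below 25% and at least one doubling.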

Seliciclib + Trametinib = compound: CC[C@H](CO)Nc1nc(NCc2ccccc2)c2ncn(C(C)C)c2n1 [Seliciclib] + CC(=O)Nc1cccc(-n2c(=O)n(C3CC3)c(=O)c3c(Nc4ccc(I)cc4F)n(C)c(=O)c(C)c32)c1 [Trametinib] (partner 0.02 µM)
In short: (§1)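 For relative viability, nuclei counts in treated wells were divided by those in vehicle wells. Lung cancer cell lines had been pin-tool dosed in 1536-well plates the day after seeding and cultured for 5 days, then fixed and stained in one step (final 0.05% Triton X-100, 1% formaldehyde, 1 ug/ml Hoechst) and imaged at 4×. Doses were one drug alone or a fixed anchor-drug dose plus five library-drug doses (not always all listed) in √10 steps, and values are duplicate-plate medians.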

Seliciclib + Phenformin = compound: CC[C@H](CO)Nc1nc(NCc2ccccc2)c2ncn(C(C)C)c2n1 [Seliciclib] + N=C(N)NC(=N)NCCc1ccccc1 [Phenformin] (partner 250 µM)
In short: as §1

Seliciclib + Olaparib = compound: CC[C@H](CO)Nc1nc(NCc2ccccc2)c2ncn(C(C)C)c2n1 [Seliciclib] + O=C(c1cc(Cc2n[nH]c(=O)c3ccccc23)ccc1F)N1CCN(C(=O)C2CC2)CC1 [Olaparib] (partner 8 µM)
In short: as §1

| Cell Line | relative viability (Seliciclib; 0.08 µM) | relative viability (Seliciclib; 0.253 µM) | relative viability (Seliciclib; 0.8 µM) | relative viability (Seliciclib; 2.53 µM) | relative viability (Seliciclib; 8 µM) | relative viability (Seliciclib + Trametinib; first compound 0.08 µM) | relative viability (Seliciclib + Trametinib; first compound 0.253 µM) | relative viability (Seliciclib + Trametinib; first compound 0.8 µM) | relative viability (Seliciclib + Trametinib; first compound 2.53 µM) | relative viability (Seliciclib + Trametinib; first compound 8 µM) | relative viability (Seliciclib + Phenformin; first compound 0.08 µM) | relative viability (Seliciclib + Phenformin; first compound 0.253 µM) | relative viability (Seliciclib + Phenformin; first compound 0.8 µM) | relative viability (Seliciclib + Phenformin; first compound 2.53 µM) | relative viability (Seliciclib + Phenformin; first compound 8 µM) | relative viability (Seliciclib + Olaparib; first compound 0.08 µM) | relative viability (Seliciclib + Olaparib; first compound 0.253 µM) | relative viability (Seliciclib + Olaparib; first compound 0.8 µM) | relative viability (Seliciclib + Olaparib; first compound 2.53 µM) | relative viability (Seliciclib + Olaparib; first compound 8 µM) |
| --- | --- | --- | --- | --- | --- | --- | --- | --- | --- | --- | --- | --- | --- | --- | --- | --- | --- | --- | --- | --- |
| NCI-H1975 | 0.949 | 0.822 | 0.993 | 0.8 | 0.843 | 0.383 | 0.215 | 0.439 | 0.266 | 0.334 | 0.386 | 0.335 | 0.392 | 0.312 | 0.236 | 0.774 | 0.605 | 0.768 | 0.865 | 0.523 |
| LK-2 | 0.99 | 0.737 | 0.966 | 0.759 | 0.69 | 0.747 | 0.575 | 0.69 | 0.693 | 0.577 | 0.475 | 0.415 | 0.358 | 0.243 | 0.274 | 0.817 | 0.723 | 0.739 | 0.398 | 0.718 |
| NCI-H661 | 0.964 | 1.02 | 0.966 | 0.916 | 0.756 | 0.59 | 0.581 | 0.5 | 0.491 | 0.416 | 0.274 | 0.26 | 0.297 | 0.264 | 0.304 | 0.674 | 0.768 | 0.695 | 0.724 | 0.674 |
| NCI-H358 | 0.932 | 0.922 | 0.785 | 0.621 | 0.633 | 0.137 | 0.124 | 0.143 | 0.104 | 0.0859 | 0.347 | 0.392 | 0.248 | 0.241 | 0.209 | 0.588 | 0.595 | 0.546 | 0.561 | 0.346 |
| HCC-366 | 1.01 | 1.06 | 0.998 | 1.03 | 0.938 | 0.332 | 0.253 | 0.368 | 0.317 | 0.239 | 0.618 | 0.716 | 0.571 | 0.62 | 0.506 | 0.335 | 0.422 | 0.35 | 0.456 | 0.234 |
| HOP-62 | 1.04 | 1.1 | 1.08 | 1 | 0.94 | 0.377 | 0.302 | 0.377 | 0.418 | 0.431 | 0.665 | 0.699 | 0.75 | 0.713 | 0.576 | 0.445 | 0.398 | 0.299 | 0.264 | 0.391 |
| NCI-H1648 | 0.922 | 1.11 | 1.18 | 0.721 | 0.704 | 0.5 | 0.501 | 0.478 | 0.406 | 0.394 | – | – | – | – | – | 1.2 | 0.968 | 0.735 | 0.734 | 0.397 |
| SW 1573 | 1.03 | 0.989 | 0.888 | 0.913 | 0.757 | 0.561 | 0.48 | 0.566 | 0.57 | 0.341 | 0.373 | 0.24 | 0.346 | 0.384 | 0.311 | 0.473 | 0.487 | 0.527 | 0.471 | 0.425 |
| LU99A | 0.962 | 0.836 | 0.953 | 0.69 | 0.775 | 0.586 | 0.484 | 0.5 | 0.485 | 0.393 | 0.898 | 0.937 | 0.817 | 0.705 | 0.714 | 0.252 | 0.264 | 0.284 | 0.279 | 0.278 |
| NCI-H647 | 0.971 | 0.836 | 1.03 | 0.939 | 0.754 | 0.392 | 0.37 | 0.427 | 0.512 | 0.508 | 0.515 | – | 0.537 | 0.603 | 0.409 | 0.526 | 0.433 | 0.512 | 0.649 | 0.313 |
| A-427 | 1.03 | 1.02 | 1.02 | 0.883 | 0.967 | 0.767 | 0.816 | 0.797 | 0.678 | 0.586 | 0.325 | 0.354 | 0.307 | 0.276 | 0.295 | 0.79 | 0.714 | 0.712 | 0.617 | 0.639 |
| COR-L 105 | 0.932 | 1.14 | 0.924 | 0.851 | 0.902 | 0.469 | 0.36 | 0.427 | 0.451 | 0.401 | 0.466 | 0.565 | 0.549 | 0.389 | 0.481 | 0.656 | 0.602 | 0.7 | 0.713 | 0.733 |
| EBC-1 | 0.945 | 0.84 | 1.06 | 0.985 | 0.663 | – | – | – | – | – | – | – | – | – | – | 0.712 | 0.651 | 0.734 | 0.665 | 0.461 |
| ABC-1 | 0.995 | 1.12 | 1 | 0.615 | 0.582 | – | – | – | – | – | 0.251 | 0.257 | 0.234 | 0.281 | 0.222 | 0.864 | 0.741 | 0.615 | – | 0.782 |
| NCI-H1563 | 1.03 | 0.872 | 1.06 | 0.833 | 0.897 | – | – | – | – | – | 0.754 | 0.63 | 0.651 | 0.626 | 0.664 | – | – | – | – | – |
| NCI-H1299 | 0.959 | 1.12 | 1.03 | 1.02 | 1.03 | – | – | – | – | – | – | – | – | – | – | 0.967 | 1.08 | 0.957 | 0.949 | 0.954 |
| A549 | 0.914 | 0.985 | 0.931 | 0.906 | 0.81 | – | – | – | – | – | 0.154 | – | 0.183 | 0.171 | 0.127 | 0.3 | 0.41 | 0.251 | 0.26 | 0.361 |
| IA-LM | 1.01 | 1.1 | 0.919 | 1 | 0.819 | – | – | – | – | – | – | – | – | – | – | 0.8 | 0.973 | 0.879 | 0.72 | 0.745 |
| Calu-6 | 0.991 | 1.13 | 1.01 | 1.01 | 0.891 | – | – | – | – | – | – | – | – | – | – | 0.602 | 0.658 | 0.565 | 0.624 | 0.532 |

From the supplement of paper PMC10307832
